Drawing on patent US20260000676A1, “CHROMAN DERIVATIVES AS ESTROGEN RECEPTOR DEGRADERS” (THE REGENTS OF THE UNIVERSITY OF MICHIGAN, priority 2022, published 2026), this text covers IC50, DC50 and Dmax for 18 compounds.

T1 sequence (P03372 whole entry): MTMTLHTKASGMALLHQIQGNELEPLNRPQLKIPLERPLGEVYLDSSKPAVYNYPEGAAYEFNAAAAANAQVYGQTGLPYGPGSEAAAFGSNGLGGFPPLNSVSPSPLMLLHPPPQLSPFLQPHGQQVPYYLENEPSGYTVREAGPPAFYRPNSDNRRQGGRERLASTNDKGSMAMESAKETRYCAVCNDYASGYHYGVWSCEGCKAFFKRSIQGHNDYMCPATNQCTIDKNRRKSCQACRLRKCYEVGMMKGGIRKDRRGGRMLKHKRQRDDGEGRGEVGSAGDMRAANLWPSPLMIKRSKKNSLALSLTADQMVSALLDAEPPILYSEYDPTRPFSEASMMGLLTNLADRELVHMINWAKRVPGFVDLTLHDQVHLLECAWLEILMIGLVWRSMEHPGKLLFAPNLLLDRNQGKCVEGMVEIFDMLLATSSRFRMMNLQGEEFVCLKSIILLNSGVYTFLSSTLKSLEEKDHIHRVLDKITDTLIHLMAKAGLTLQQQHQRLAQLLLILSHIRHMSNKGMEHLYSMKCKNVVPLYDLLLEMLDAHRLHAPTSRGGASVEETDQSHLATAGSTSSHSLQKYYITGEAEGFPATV

The target of one assay is CRBN/DDB1 (Homo sapiens (Human), UniProt Q96SW2). Put plainly: HTRF binding assay to CRBN/DDB1. The settings on record: read-out: CRBN HTRF IC50. The procedure: The binding potency was determined using HTRF assay technology (Perkin Elmer). Compounds were serially diluted in DMSO and 0.2 μL volume was transferred to white 384-well plate.
Sequence of CRBN/DDB1 (Q96SW2 whole entry): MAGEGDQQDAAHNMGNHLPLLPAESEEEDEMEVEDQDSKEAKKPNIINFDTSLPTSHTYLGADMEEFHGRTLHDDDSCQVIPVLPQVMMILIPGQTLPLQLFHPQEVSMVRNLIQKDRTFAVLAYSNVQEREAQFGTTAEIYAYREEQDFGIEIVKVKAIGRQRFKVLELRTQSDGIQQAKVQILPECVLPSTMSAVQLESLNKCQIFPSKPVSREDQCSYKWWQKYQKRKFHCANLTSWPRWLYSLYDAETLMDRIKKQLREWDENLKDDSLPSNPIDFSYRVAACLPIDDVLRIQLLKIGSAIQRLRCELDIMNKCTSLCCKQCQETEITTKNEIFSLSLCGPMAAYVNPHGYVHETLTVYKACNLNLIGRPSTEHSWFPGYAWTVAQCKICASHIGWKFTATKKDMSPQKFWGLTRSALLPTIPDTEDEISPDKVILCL
Sequence of CRBN/DDB1 (Q16531 whole entry partner): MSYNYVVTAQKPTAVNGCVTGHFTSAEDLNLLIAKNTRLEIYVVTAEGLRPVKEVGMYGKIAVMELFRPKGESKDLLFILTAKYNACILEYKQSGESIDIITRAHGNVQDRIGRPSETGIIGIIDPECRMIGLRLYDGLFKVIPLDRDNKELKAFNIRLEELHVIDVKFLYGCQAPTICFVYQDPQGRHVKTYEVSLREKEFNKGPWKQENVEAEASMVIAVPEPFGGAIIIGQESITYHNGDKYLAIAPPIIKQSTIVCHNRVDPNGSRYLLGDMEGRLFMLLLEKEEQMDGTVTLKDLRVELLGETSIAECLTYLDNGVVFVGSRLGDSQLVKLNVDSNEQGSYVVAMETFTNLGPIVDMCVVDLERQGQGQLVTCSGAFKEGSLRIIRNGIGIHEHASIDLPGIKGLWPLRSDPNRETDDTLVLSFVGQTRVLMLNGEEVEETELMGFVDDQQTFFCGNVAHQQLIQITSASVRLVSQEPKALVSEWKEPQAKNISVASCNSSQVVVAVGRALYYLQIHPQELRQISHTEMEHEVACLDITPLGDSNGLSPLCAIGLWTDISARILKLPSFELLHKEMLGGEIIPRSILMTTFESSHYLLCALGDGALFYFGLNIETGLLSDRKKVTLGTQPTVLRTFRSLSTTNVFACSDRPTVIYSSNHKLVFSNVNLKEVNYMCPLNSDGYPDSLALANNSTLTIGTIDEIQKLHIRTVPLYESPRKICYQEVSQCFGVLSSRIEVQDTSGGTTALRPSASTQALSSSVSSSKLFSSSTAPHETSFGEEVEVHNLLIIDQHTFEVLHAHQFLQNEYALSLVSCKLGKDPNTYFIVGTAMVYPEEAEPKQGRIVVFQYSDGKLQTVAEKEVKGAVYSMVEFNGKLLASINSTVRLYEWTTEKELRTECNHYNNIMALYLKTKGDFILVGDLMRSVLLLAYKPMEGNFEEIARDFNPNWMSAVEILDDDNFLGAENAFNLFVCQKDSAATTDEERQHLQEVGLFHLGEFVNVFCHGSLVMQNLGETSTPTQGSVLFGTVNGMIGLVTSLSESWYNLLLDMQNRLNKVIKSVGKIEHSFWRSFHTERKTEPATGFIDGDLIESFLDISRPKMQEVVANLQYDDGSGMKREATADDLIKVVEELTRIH
In the case of `COc1ccc([C@H]2COc3cc(O)ccc3[C@H]2c2ccc(N3CCC(CN4CCN5c6ccc7c(c6OC[C@@H]5C4)CN(C4CCC(=O)NC4=O)C7=O)CC3)cc2)cc1` (single isomer, unassigned) [Compound A13], the IC50 was 0.05 to 0.5 µM. Take `Cc1nn(C2CCC(=O)NC2=O)c2ccc(N3CCN(CC4CC5(CCN(c6ccc([C@@H]7c8ccc(O)cc8OC[C@@H]7c7ccccc7)cc6)CC5)C4)CC3)cc12` (single isomer, unassigned) [Compound A25]: the IC50 fell in the range of 0.05 to 0.5 µM. Still for that read-out and setting: then `O=C1CCC(N2C(=O)c3cc4c(cc3C2=O)CN(CC(=O)N2CCC3(CC2)CCN(c2ncc([C@@H]5c6ccc(O)cc6OC[C@@H]5c5ccccc5)cn2)CC3)C4)C(=O)N1` (stereo partly drawn) [Compound A5, 2-(2,6-dioxopiperidin-3-yl)-6-(2-(9-(5-((3S,4R)-7-hydroxy-3-phenylchroman-4-yl)pyrimidin-2-yl)-3,9-diazaspiro[5.5]undecan-3-yl)-2-oxoethyl)-6,7-dihydropyrrolo[3,4-f]isoindole-1,3(2H,5H)-dione], with 0.5 to 5 µM. For `COc1ccc([C@@H]2COc3cc(O)ccc3[C@@H]2c2ccc(N3CCC(CN4CCN5c6ccc7c(c6OC[C@@H]5C4)CN(C4CCC(=O)NC4=O)C7=O)CC3)cc2)cc1` (single isomer, unassigned) [Compound A12], the IC50 lay in the range of 0.05 to 0.5 µM. Regarding `COc1cccc([C@@H]2COc3cc(O)ccc3[C@@H]2c2ccc(N3CCC(CN4CCN5c6ccc7c(c6OC[C@@H]5C4)CN(C4CCC(=O)NC4=O)C7=O)CC3)cc2)c1` (single isomer, unassigned) [Compound A24], the IC50 was under 0.05 µM.

On to `O=C1CCC(N2Cc3c(ccc4c3OC[C@@H]3CN(CC5CCN(c6ncc([C@@H]7c8ccc(O)cc8OC[C@@H]7c7ccccc7)cn6)CC5)CCN43)C2=O)C(=O)N1` (single isomer, unassigned) [Compound A20], for which the IC50 was under 0.05 µM. With `O=C1CCC(N2C(=O)c3cc4c(cc3C2=O)CN(CC(=O)N2CCC3(CC2)CCN(c2ncc([C@H]5c6ccc(O)cc6OC[C@H]5c5ccccc5)cn2)CC3)C4)C(=O)N1` (stereo partly drawn) [Compound A4, 2-(2,6-dioxopiperidin-3-yl)-6-(2-(9-(5-((3R,4S)-7-hydroxy-3-phenylchroman-4-yl)pyrimidin-2-yl)-3,9-diazaspiro[5.5]undecan-3-yl)-2-oxoethyl)-6,7-dihydropyrrolo[3,4-f]isoindole-1,3(2H,5H)-dione], the IC50 lay within 0.5 to 5 µM. `COc1ccc([C@@H]2COc3cc(O)ccc3[C@@H]2c2ccc(N3CCC(CN4CCN5c6ccc7c(c6OC[C@H]5C4)CN(C4CCC(=O)NC4=O)C7=O)CC3)cc2)cc1` (single isomer, unassigned) [Compound A15]: the IC50 lay in the range of 0.05 to 0.5 µM. Turning to `O=C1CCC(N2Cc3cc4c(cc3C2=O)OC[C@@H]2CN(CC3CCN(c5ncc([C@H]6c7ccc(O)cc7OC[C@H]6c6ccccc6)cn5)CC3)CCN42)C(=O)N1` (stereo partly drawn) [Compound A18, 3-((S)-3-((1-(5-((3R,4S)-7-hydroxy-3-phenylchroman-4-yl)pyrimidin-2-yl)piperidin-4-yl)methyl)-8-oxo-1,2,3,4,4a,5,8,10-octahydro-9H-pyrazino[1′,2′:4,5][1,4]oxazino[2,3-f]isoindol-9-yl)piperidine-2,6-dione], the IC50 lay within 0.5 to 5 µM. Same read-out and setting: then `O=C1CCC(N2Cc3cc4c(cc3C2=O)OC[C@@H]2CN(CC3CCN(c5ncc([C@@H]6c7ccc(O)cc7OC[C@@H]6c6ccccc6)cn5)CC3)CCN42)C(=O)N1` (stereo partly drawn) [Compound A10, 3-((S)-3-((1-(5-((3S,4R)-7-hydroxy-3-phenylchroman-4-yl)pyrimidin-2-yl)piperidin-4-yl)methyl)-8-oxo-1,2,3,4,4a,5,8,10-octahydro-9H-pyrazino[1′,2′:4,5][1,4]oxazino[2,3-f]isoindol-9-yl)piperidine-2,6-dione], with 0.5 to 5 µM.

`O=C1CCC(N2Cc3cc4c(cc3C2=O)OC[C@@H]2CN(CC3CCN(c5ccc([C@H]6c7ccc(O)cc7OC[C@H]6c6ccccc6)cc5)CC3)CCN42)C(=O)N1` (stereo partly drawn) [Compound A11, 3-((S)-3-((1-(4-((3R,4S)-7-hydroxy-3-phenylchroman-4-yl)phenyl)piperidin-4-yl)methyl)-8-oxo-1,2,3,4,4a,5,8,10-octahydro-9H-pyrazino[1′,2′:4,5][1,4]oxazino[2,3-f]isoindol-9-yl)piperidine-2,6-dione]: the IC50 was over 5 µM. `O=C1CCC(Nc2ccc(N3CCN(CC4CCN(c5ccc([C@@H]6c7ccc(O)cc7OC[C@@H]6c6ccccc6)cc5)CC4)CC3)c(F)c2)C(=O)N1` (stereo partly drawn) [Compound A30, 3-((3-fluoro-4-(4-((1-(4-((3S,4R)-7-hydroxy-3-phenylchroman-4-yl)phenyl)piperidin-4-yl)methyl)piperazin-1-yl)phenyl)amino)piperidine-2,6-dione]: the IC50 lay in the range of 0.5 to 5 µM.

As for `O=C1CCC(N2Cc3c(ccc4c3OC[C@@H]3CN(CC5CC6(CCN(c7ccc([C@H]8c9ccc(O)cc9OC[C@H]8c8ccccc8)cc7)CC6)C5)CCN43)C2=O)C(=O)N1` (single isomer, unassigned) [Compound A21, 3-((S)-7-((7-(4-((3R,4S)-7-hydroxy-3-phenylchroman-4-yl)phenyl)-7-azaspiro[3.5]nonan-2-yl)methyl)-1-oxo-1,3,5,5a,6,7,8,9-octahydro-2H-pyrazino[1′,2′:4,5][1,4]oxazino[2,3-e]isoindol-2-yl)piperidine-2,6-dione], the IC50 was under 0.05 µM. Consider `O=C1CCC(N2Cc3c(ccc4c3OC[C@@H]3CN(CC5CCN(c6ncc([C@H]7c8ccc(O)cc8OC[C@H]7c7ccccc7)cn6)CC5)CCN43)C2=O)C(=O)N1` (single isomer, unassigned) [Compound A19], for which the IC50 lay within 0.05 to 0.5 µM.

Turning to `O=C1CCC(N2Cc3c(ccc4c3OC[C@@H]3CN(CC5CC6(CCN(c7ccc([C@@H]8c9ccc(O)cc9OC[C@@H]8c8ccccc8)cc7)CC6)C5)CCN43)C2=O)C(=O)N1` (stereo partly drawn) [Compound A22, 3-((S)-7-((7-(4-((3S,4R)-7-hydroxy-3-phenylchroman-4-yl)phenyl)-7-azaspiro[3.5]nonan-2-yl)methyl)-1-oxo-1,3,5,5a,6,7,8,9-octahydro-2H-pyrazino[1′,2′:4,5][1,4]oxazino[2,3-e]isoindol-2-yl)piperidine-2,6-dione], the 50% inhibitory concentration (IC50) is under 0.05 µM. For `O=C1CCC(Nc2ccc(N3CCN(CC4CCN(c5ccc([C@@H]6c7ccc(O)cc7OC[C@@H]6c6ccccc6)cc5F)CC4)CC3)c(F)c2)C(=O)N1` (stereo partly drawn) [Compound A29, 3-((3-fluoro-4-(4-((1-(2-fluoro-4-((3S,4R)-7-hydroxy-3-phenylchroman-4-yl)phenyl)piperidin-4-yl)methyl)piperazin-1-yl)phenyl)amino)piperidine-2,6-dione], the IC50 lay in the range of 0.5 to 5 µM. Same read-out and setting: the value for `COc1cccc([C@H]2COc3cc(O)ccc3[C@H]2c2ccc(N3CCC(CN4CCN5c6ccc7c(c6OC[C@@H]5C4)CN(C4CCC(=O)NC4=O)C7=O)CC3)cc2)c1` (single isomer, unassigned) [Compound A23] was under 0.05 µM.

The next assay addresses T1, ER (Homo sapiens (Human), UniProt P03372). The assay can be described thus: In-cell western (ICW) ER degradation assay in MCF-7 cells. The format is cell-based. The conditions noted are these: ER degradation, MCF7, 16 hrs. Here is the method: (§1) ERa degradative activity of compounds can be assessed in MCF-7 and T47D Cells. MCF-7 and T47D cell are seeded and are subsequently treated with the compounds at certain concentrations (e.g., 0.02 to 300 nM). DMSO can be used as vehicle control. Cells are fixed and are blocked with Intercept (PBS) Blocking Buffer (e.g., Li-COR, Odyssey Blocking Buffer), and are stained with ER (e.g., 1:500, Cell signaling) primary antibody for overnight at cold room. Secondary Antibody (e.g., IRDye 800CW Goat anti-Rabbit IgG) and CellTag 700 Stain are added in Intercept (PBS) Blocking Buffer. Finally, cell plate is placed in incubator to dry. Image and signal are captured on Odyssey® DLx Imaging System.
(§2) Day 3: After 16 hrs of compounds treatment, cells were fixed by 4% PFA and permeabilized with elution buffer (0.1% Triton X-100 in 1% PBS Solution). Subsequently, cells were blocked with Intercept (PBS) Blocking Buffer (Li-COR, Odyssey Blocking Buffer), and were stained with ER (1:500, Cell signaling) primary antibody for overnight at cold room.
(§3) Day 4: Remove the buffer, add IRDye 800CW Goat anti-Rabbit IgG Secondary Antibody (1:2000) and CellTag 700 Stain (1:500) in Intercept (PBS) Blocking Buffer. Finally, cell plate is placed in incubator to dry. Image and signal were captured on Odyssey® DLx Imaging System.
Take `O=C1CCC(N2Cc3cc4c(cc3C2=O)OCC42CCN(CC3CC4(CCN(c5ccc([C@H]6c7ccc(O)cc7OC[C@H]6c6ccccc6)cn5)CC4)C3)CC2)C(=O)N1` (stereo partly drawn) [Compound A123, 3-(1′-((7-(5-((3R,4S)-7-hydroxy-3-phenylchroman-4-yl)pyridin-2-yl)-7-azaspiro[3.5]nonan-2-yl)methyl)-7-oxo-5,7-dihydro-2H,6H-spiro[furo[2,3-f]isoindole-3,4′-piperidin]-6-yl)piperidine-2,6-dione]: the DC50 is under 0.001 µM.

The same assay, now with this note: MCF7, maximal ER degradation, MCF7, 16 hrs.
For `O=C1CCC(N2Cc3cc4c(cc3C2=O)OCC42CCN(CC3CC4(CCN(c5ccc([C@H]6c7ccc(O)cc7OC[C@H]6c6ccccc6)cn5)CC4)C3)CC2)C(=O)N1` (stereo partly drawn) [Compound A123, 3-(1′-((7-(5-((3R,4S)-7-hydroxy-3-phenylchroman-4-yl)pyridin-2-yl)-7-azaspiro[3.5]nonan-2-yl)methyl)-7-oxo-5,7-dihydro-2H,6H-spiro[furo[2,3-f]isoindole-3,4′-piperidin]-6-yl)piperidine-2,6-dione], the Dmax was 50 to 75%.

In the next assay the target is T1, ER. Put plainly: In-cell western (ICW) ER degradation assay in T47D cells. It is filed as cell-based. The settings on record: ER degradation, 16 hrs. Here is the method: as §1, §2, §3
`O=C1CCC(N2Cc3cc4c(cc3C2=O)OCC42CCN(CC3CC4(CCN(c5ccc([C@H]6c7ccc(O)cc7OC[C@H]6c6ccccc6)cn5)CC4)C3)CC2)C(=O)N1` (stereo partly drawn) [Compound A123, 3-(1′-((7-(5-((3R,4S)-7-hydroxy-3-phenylchroman-4-yl)pyridin-2-yl)-7-azaspiro[3.5]nonan-2-yl)methyl)-7-oxo-5,7-dihydro-2H,6H-spiro[furo[2,3-f]isoindole-3,4′-piperidin]-6-yl)piperidine-2,6-dione] registered a DC50 of under 0.001 µM.

The assay is the same for the next values; noted with them: maximal ER degradation, 16 hrs.
Compound `O=C1CCC(N2Cc3cc4c(cc3C2=O)OCC42CCN(CC3CC4(CCN(c5ccc([C@H]6c7ccc(O)cc7OC[C@H]6c6ccccc6)cn5)CC4)C3)CC2)C(=O)N1` (stereo partly drawn) [Compound A123, 3-(1′-((7-(5-((3R,4S)-7-hydroxy-3-phenylchroman-4-yl)pyridin-2-yl)-7-azaspiro[3.5]nonan-2-yl)methyl)-7-oxo-5,7-dihydro-2H,6H-spiro[furo[2,3-f]isoindole-3,4′-piperidin]-6-yl)piperidine-2,6-dione] gave a Dmax of 50 to 75%.
